A word on the Ki: it is a dissociation constant, usually derived from enzyme kinetics or from competition with a known ligand.

Structures can show the parent of a compound that is named as a salt.

The target in the assay is GABAa receptor. Kind of assay: GABAa receptor activity: inhibition of 3H-RO15-1788 (3H-Flumazenil) binding to rat cortical tissue. The conditions noted are these: 0.5 nM 3H-RO15-1788, 30 min at 4° C. The procedure: The pharmaceutical utility of compounds of this invention are indicated by the following assay for GABAa receptor activity.
The assay is carried out as described in Thomas and Tallman (J. Bio. Chem. 156: 9838-9842, J. Neurosci. 3:433-440, 1983). Rat cortical tissue is dissected and homogenized in 25 volumes (w/v of 0.05M Tris HCl buffer (pH 7.4 at 4° C.). The tissue homogenate is centrifuged in the cold (4° C.) at 20,000×g for 20 minutes. The supernatant is decanted and the pellet is rehomogenized in the same volume of buffer and again centrifuged at 20,000×g. The supernatant is decanted and the pellet is frozen at -20° C. overnight. The pellet is then thawed and rehomogenized in 25 volume (original w/v) of buffer and the procedure is carried out twice. The pellet is finally resuspended in 50 volumes (w/v) of 0.05M Tris HCl buffer (pH 7.4 at […]).
Incubation contain 100 of tissue homogenate, […] of radioligand (0.5 nM ^3 H-RO15-1788 [^3 H-Flumazenil] specific activity 80 Ci/mmol), drug or blocker and buffer to a total volume of […]. Incubstion are carried for 30 min at 4° C. then are rapidly filtered through GFB filters to separate free and bound ligand. Filters are washed twice with fresh 0.05M Tris HCl buffer (pH 7.4 at 4° C.) and counted in a liquid scintillation counter. 1.0 mM diazepam is added to some tubes to determine nonspecific binding. Data are collected in triplicate determinations, averaged and % inhibition of total specific binding is calculated. Total Specific Binding=Total-Nonspecific. In some case, the amounts of unlabeled drugs is varied and total displacement curves of binding are carried. Data are converted to a form for the calculation of Ki and Hill Coefficient (nH).
Regarding `COc1ccc(-c2ncc3n2CN(C(=O)c2ccccc2)c2ccccc2-3)cc1` [Compound 53, 3-(4-Methoxyphenyl)-5,6-dihydro-6-benzoylimidazo-[1,5-c]quinazoline], the affinity corresponds to a Ki of 7.8 nM.
As to `COc1ccc(-c2ncc3n2CN(C(=O)N(C)C)c2ccccc2-3)cc1` [Compound 2, 3-(4-Methoxyphenyl)-5,6-dihydro-6-[(N,N-dimethyl-amino)carbonyl]imidazo[1,5-c]quinazoline hydrochloride], the affinity corresponds to a Ki of 4.7 nM.
In turn, `COc1ccc(-c2ncc3n2CN(C(=O)c2ccccc2)c2ccccc2-3)c(F)c1` [Compound 72, 3-(2-Fluoro-4-methoxyphenyl)-5,6-dihydro-6-benzoyl-imidazo[1,5-c]quinazoline] displayed a Ki of 9.7 nM. Against the preceding compound, the Ki is about 2.1-fold higher.
In the case of `COc1ccc(-c2ncc3n2CN(C(=O)N2CCOCC2)c2ccccc2-3)cc1` [Compound 3, 3-(4-Methoxyphenyl)-5,6-dihydro-6-[(1-morpholino)-carbonyl]imidazo[1,5-c]quinazoline hydrochloride] it was 2.7 nM; in that of `COc1cccc(-c2ncc3n2CN(C(=O)N2CCCCC2)c2ccccc2-3)c1` [Compound 16, 3-(3-Methoxyphenyl)-5,6-dihydro-6-[(1-piperidino)-carbonyl]imidazo[1,5-]quinazoline hydrochloride], 17 nM; in that of `O=C(N1CCCCCC1)N1Cn2c(cnc2-c2ccccc2)-c2ccccc21` [Compound 18, 3-Phenyl-5,6-dihydro-6-[(1-hexamethyleneimino)-carbonyl]imidazo[1,5-c]quinazoline hydrochloride], 12 nM.
As for `CCn1c(=O)n2c(-c3ccccc3F)ncc2c2ccccc21` [Compound 76, 3-(2-Fluorophenyl)-5,6-dihydro-5-oxo-6-ethyl-imidazo[1,5-c]quinazoline], the inhibition constant Ki was determined as 124 nM.
In the case of `COc1ccc(-c2ncc3n2CN(C(C)=O)c2ccccc2-3)cc1` [Compound 49, 3-(4-methoxyphenyl)-5,6-dihydro-6-acetylimidazo[1,5-c]-quinazoline], the Ki amounted to 101 nM. This Ki and that of the compound before are within 1.5-fold of each other.
To `COc1ccc(-c2ncc3n2CN(C(=O)N2CCCCC2)c2ccccc2-3)cc1` [Compound 1, 3-(4-methoxyphenyl)-5,6-dihydro-6-[(1-piperidino)carbonyl]imidazo[1,5-c]quinazoline] belongs 6 nM.

Values taken from patent US5792766A (priority 1996, dated 1998).
